Results: article PMC10799292, “The Role of β-Defensin 1 Against Porphyromonas gingivalis Lipopolysaccharide-Mediated Inflammation in the THP-1 Cell Line” (Cureus, 2023)
No end group written: not given here.

Tests used:
Assay type in all cases: cell-based, human
[1] = tested on: Pg-LPS stimulated THP-1 cells; experiment: Cytotoxic evaluation of β-defensin 1 against Pg-LPS-treated THP-1 cells (MTT); conditions: β-defensin 1 at 260.85 ng/mL, 24 h, triplicates
Protocol: (§1) The THP-1 cell line was cultured in DMEM and supplemented with 10% FBS, sodium bicarbonate, L-glutamine, and an antibiotic solution containing penicillin (100 U/mL), amphotericin B (2.5 µg/mL), and streptomycin (100 µg/mL). The cells were maintained in a 5% humidified CO2 incubator (NBS Eppendorf, Germany) at 37°C. To induce differentiation into macrophages, the THP-1 cell line was treated with 25 ng/mL phorbol 12-myristate 13-acetate (PMA) (cat. 91585, Sigma-Aldrich, USA) and incubated for 48 hours. Following incubation, the cells were seeded in a 96-well culture plate at a density of 5x10^4 cells/well and incubated for 24 hours in a humidified 5% CO2 incubator at 37°C.
(§2) Inverted phase contrast microscopy (IPCM) using an Olympus CKX41 microscope (Olympus, Japan) equipped with an Optika Pro5 CCD camera (Optika, Italy) was utilized to directly observe the cells. Cell viability was determined using the MTT (3-(4,5-Dimethylthiazol-2-yl)-2,5-diphenyltetrazolium bromide) assay (Sigma, M-5655). […] The absorbance of this colored solution can be quantified by measuring at approximately 570 nm using a spectrophotometer.
(§3) The whole plate was analyzed under a microscope with an IPCM, and the results were photographed. […] The purple formazan crystals were dissolved in dimethyl sulfoxide (DMSO) and the absorbance (OD) was measured at 570 nm using a microplate reader. […]

[2] = tested on: THP-1 differentiated macrophage cell line; experiment: Cytotoxicity evaluation of β-defensin 1 by MTT method; conditions: 24 h, 12.5-200 ng/mL
Protocol: as §1, §2, §3

COX = experiment: Cyclooxygenase (COX) activity inhibition in lysate of Pg-LPS stimulated THP-1 cells; conditions: for COX Percentage inhibition Average / COX Percentage inhibition 1 / COX Percentage inhibition 2: Pg-LPS 1 µg/mL, 24 h; for COX Percentage inhibition Average: mean of duplicates; for COX Percentage inhibition 1: replicate 1; for COX Percentage inhibition 2: replicate 2
Protocol: (§4) For inducing differentiation of THP-1 cells into macrophages, the cell line was premixed with 25 ng/mL PMA and incubated for 48 hours. After incubation, 5x10^4 cells were activated with Pg-LPS (LPS: 1 µg/mL) for one hour. Pg-LPS stimulated cells were exposed to different concentrations (6.25, 12.5, and 25 ng/mL) of β-defensin 1 and incubated for 24 hours. After incubation, the following anti-inflammatory assays were conducted utilizing the cell lysate.
The cyclooxygenase (COX) activity was assayed by the method of Walker and Gierse. The cell lysate was incubated for one minute at 25°C with Tris-HCl buffer (pH 8), glutathione 5 mM/L, and hemoglobin 5 mM/L. Arachidonic acid 200 mM/L was added to initiate the reaction, and after 20 minutes at 37°C, 200 µL of 10% trichloroacetic acid in 1 N hydrochloric acid was added to terminate the reaction. After centrifugation and addition of 200 µL of 1% thiobarbituric acid, the tubes were boiled for 20 minutes. After cooling, the tubes were centrifuged for three minutes. By reading absorbance at […], COX activity was measured, and the percentage of COX activity inhibition was calculated as per the following formula

THP-1 cells = experiment: Cell cycle distribution by flow cytometry; conditions: co-treated with β-defensin 1, Pg-LPS stimulated
Protocol: Untreated control and Pg-LPS stimulated cells were also maintained. The MUSE Cell Cycle Kit was added, and the manufacturer's instructions were followed.

[3] = tested on: Inducible nitric oxide synthase; experiment: Inducible nitric oxide synthase inhibition in lysate of Pg-LPS stimulated THP-1 cells; conditions: for Inducible nitric oxide synthase Percentage inhibition Average / Inducible nitric oxide synthase Percentage inhibition 1 / Inducible nitric oxide synthase Percentage inhibition 2: Pg-LPS 1 µg/mL, 24 h; for Inducible nitric oxide synthase Percentage inhibition Average: mean of duplicates; for Inducible nitric oxide synthase Percentage inhibition 1: replicate 1; for Inducible nitric oxide synthase Percentage inhibition 2: replicate 2
Protocol: as §4
Nitric oxide synthase was measured using the method reported by Salter et al.. The cell lysate was homogenized in 2 ml of 4-(2-hydroxyethyl)-1-piperazineethanesulfonic acid (HEPES) buffer. The assay system contained 0.1 mL of 2 µmol/L L-Arginine, 0.1 mL of 4 µmol/L manganese chloride, 0.1 mL of 10 mmol/L 30 µg dithiothreitol (DTT), 0.1 mL of 1 mmol/L NADPH, 0.1 mL of 4 µmol/L tetrahydropterin, 0.1 mL of 10µmol/L oxygenated hemoglobin, and 0.1 mL of cell lysate. Enzyme activity was measured by recording an increase in absorbance at 401 nm, and the following equation was used: […]

[4] = 6.25, 12.5, and 25 ng/mL, Pg-LPS stimulated

β-defensin 1: β-Defensin 1 peptide was purchased from ThermoFisher Scientific, USA; cationic antimicrobial peptide (DHYNCVSSGGQCLYSACPIFTKIQGTCYRGKAKCCK; ends and bridges not checked; cysteine pairing not given here; UniProt P60022 33-68, looked up)
viability (in words) ([1]; Pg-LPS (1 h) up to 1 µg/mL): increased the viability of THP-1 cells
viability (in words) ([1]; Pg-LPS beyond 1 µg/mL): decrease in viability
cytotoxicity (in words) [2]: dose-dependent cytotoxicity
COX Percentage inhibition Average (COX; 6.25 ng/mL): 19.085%
COX Percentage inhibition 1 (COX; 6.25 ng/mL): 19.77%
COX Percentage inhibition 2 (COX; 6.25 ng/mL): 18.4%
COX Percentage inhibition Average (COX; 12.5 ng/mL): 35.75%
COX Percentage inhibition 1 (COX; 12.5 ng/mL): 36.41%
COX Percentage inhibition 2 (COX; 12.5 ng/mL): 35.09%
COX Percentage inhibition Average (COX; 25 ng/mL): 53.03%
COX Percentage inhibition 1 (COX; 25 ng/mL): 53.21%
COX Percentage inhibition 2 (COX; 25 ng/mL): 52.85%
COX percentage inhibition (in words) (COX; [4]): increased in a concentration-dependent manner
IC50 (COX inhibition assay) (COX; Pg-LPS 1 µg/mL 1 h, then β-defensin 1 24 h): 0.02262 µg/mL
arrest in the G0/G1 phase (in words) (THP-1 cells): reduced
Inducible nitric oxide synthase Percentage inhibition Average ([3]; 6.25 ng/mL): 19.08%
Inducible nitric oxide synthase Percentage inhibition 1 ([3]; 6.25 ng/mL): 18.99%
Inducible nitric oxide synthase Percentage inhibition 2 ([3]; 6.25 ng/mL): 19.17%
Inducible nitric oxide synthase Percentage inhibition Average ([3]; 12.5 ng/mL): 34.275%
Inducible nitric oxide synthase Percentage inhibition 1 ([3]; 12.5 ng/mL): 34.63%
Inducible nitric oxide synthase Percentage inhibition 2 ([3]; 12.5 ng/mL): 33.92%
Inducible nitric oxide synthase Percentage inhibition Average ([3]; 25 ng/mL): 50.135%
Inducible nitric oxide synthase Percentage inhibition 1 ([3]; 25 ng/mL): 50.27%
Inducible nitric oxide synthase Percentage inhibition 2 ([3]; 25 ng/mL): 50%
inducible nitric oxide synthase percentage inhibition (in words) [3, 4]: increased in a concentration-dependent manner
